pIC50: −log10 of the molar value.
Test system: Jurkat cells
Assay: Caspase 3/7 assay: apoptosis of Jurkat cells co-cultured with IFN-γ-treated A549 cells (PD-1/PD-L1 binding)
Assay type: cell-based
Details: Homo sapiens; for pIC50: Jurkat cells co-cultured with A549 cells pre-cultured with IFN-γ and test compound, read-out: IC50 (50% inhibition concentration of Caspase 3/7 activity)
Excerpt: The supernatants of each culture liquid containing A549 cells expressing PD-L1 pre-cultured with the addition of IFN-γ or human acute T-cell leukemia cell-derived Jurkat cells expressing PD-1 pre-cultured with the addition of Phorbol 12-myristate 13-Acetate (hereinafter, referred to as “PMA”: Sigma Cat #1585) and phytohemagglutinin-L (hereinafter, referred to as “PHA-L”: Roche Cat #11249738001) were removed, the culture liquids were co-cultured in new medium. The Caspase 3/7 activity of the co-cultured Jurkat cells was measured, and the measured activity was used as an index of apoptosis. Each test compound was added into the A549 cell culture liquid during the pre-culture.
(1) A549 cells were suspended in DMEM medium at 1×10^5 cells/mL to prepare an A549 cell suspension, and the A549 cell suspension was dispensed into each well a 6 well plate in an amount of 3 mL.
(2) Separately, Jurkat cells were suspended in RPMI medium at 3×10^5 cells/mL to prepare a Jurkat cell suspension, and the Jurkat cell suspension was dispensed into a T25 flask in an amount of 5 mL.
(3) The 6-well plate of the above step (1) and the T25 flask of the above step (2) were incubated together in a CO2 incubator (at 37° C. and 5% CO2) for 24±2 hours.
(1) To 3 mL of the A549 cell culture liquid were added IFN-γ (25 ng/mL) and a test compound, and the cell culture liquid was continuously cultured. The 50 mmol/L solution of the test compound in DMSO was diluted to 100 times with DMEM medium, and then the diluted solution was added as test compound group in an amount of 3 μL, 6 μL or 12 μL (final concentration: 0.5 μmol/L, 1.0 μmol/L or 2 μmol/L). In the control group, DMSO diluted to 100 times with DMEM medium was added in an amount of 12 μL. (2) Separately, to the Jurkat cell culture liquid were added PMA (final concentration: 12.5 ng/mL) and PHA (final concentration: 250 ng/mL), and the cell culture liquid was continuously cultured. [Day 3]
Cells were separated from A549 cell culture liquid with Cell Dissociation Solution Non-enzymatic (Sigma Cat No. C5914-100ML), and the cell culture liquid was centrifuged at 300×g for 5 minutes and the supernatant thereof was removed, and then the cells were suspended in RPMI medium at 4×10^5 cells/mL to prepare an A549 cell suspension.
The Jurkat cell culture liquid was centrifuged at 300×g for 5 minutes and the supernatant thereof was removed, and then the cells therein were suspended in RPMI medium at 4×10^4 cells/mL to prepare a Jurkat cell suspension.
0.25 mL of the prepared A549 cell suspension and 0.25 mL of the prepared Jurkat cell suspension (the ratio of the number of the cells is 10:1) were added into each well in a 24-well plate. 0.25 mL of A549 cells and 0.25 mL of RPMI medium were mixed and the mixture was cultured at 37° C. and 5% CO2 to prepare an A549 blank containing only A549 cells which is not co-cultured with Jurkat cells. The PD-L1 expression in A549 cells after 2 days from IFN-γ treatment and the PD-1 expression in Jurkat cells stimulated with PMA and PHA were confirmed by staining the cells with anti-CD274-PC7 antibody (PD-L1) or anti-CD279-FITC antibody (PD-1, eBioscience Cat No. 11-9969-42) in a similar procedure to that of Test Example 2 and measuring the stained cells with a flow cytometer.
The cells were cultured under the following 6 conditions.
(IF−Comp−): Co-culture of A549 cells pre-cultured without the addition of IFN-γ and the test compound as well as Jurkat cells
(IF+Comp−): Co-culture of A549 cells pre-cultured with the addition of IFN-γ and no test compound as well as Jurkat cells
(IF+Comp+): Co-culture of A549 cells pre-cultured with the addition of IFN-γ and the test compound as well as Jurkat cells
(A:IF−Comp−): Culture of only […] A549 cells pre-cultured without the addition of IFN-γ and the test compound
(A:IF+Comp−): Culture of only A549 cells pre-cultured with the addition of IFN-γ and no test compound […]

Question: How did the activity at 0.25 µM (Jurkat, 0.25 μM, control (DMSO) defined as 100%) turn out when `O=C(Nc1ccc(Oc2ccc(S(F)(F)(F)(F)F)cc2)cc1)C1CCCN(C(=O)c2ccc([N+](=O)[O-])cc2)C1` (stereo not shown) [Example 5, 1-(4-Nitrobenzoyl)-N-(4-(4-(pentafluorosulfanyl)phenoxy)phenyl)piperidine-3-carboxamide] was run?
Answer: The activity at 0.25 µM was 81.5%.

Question: And the activity at 0.5 µM (Jurkat, 0.5 μM, control (DMSO) defined as 100%)?
Answer: Its activity at 0.5 µM is 55.3%.

Question: What about the activity at 1 µM (Jurkat, 1 μM, control (DMSO) defined as 100%) of the same molecule?
Answer: The activity at 1 µM was 32.1%.

Question: And the pIC50?
Answer: The pIC50 was 6.28.

Question: `O=C(Nc1ccc(Oc2ccc(C(F)(F)F)cc2)cc1)C1CCCN(C(=O)c2ccc([N+](=O)[O-])cc2)C1` (stereo not shown) [Example 2, 1-(4-Nitrobenzoyl)-N-(4-(4-(trifluoromethyl)phenoxy)phenyl) piperidine-3-carboxamide] was tested. Which pIC50 did it give?
Answer: Its pIC50 is 5.96.

Question: `COc1cc(C(=O)N2CCCC(C(=O)Nc3ccc(Oc4ccc(S(F)(F)(F)(F)F)cc4)cc3)C2)ccc1O` (stereo not shown) [Example 6, 1-(4-Hydroxy-3-methoxybenzoyl)-N-(4-(4-(pentafluorosulfanyl)phenoxy)phenyl)piperidine-3-carboxamide] was tested. Which pIC50 did it give?
Answer: The pIC50 was 6.13.

Question: `COc1cc(C(=O)N2CCCC(C(=O)Nc3ccc(Oc4ccc(C(F)(F)F)cc4)cc3)C2)ccc1O` (stereo not shown) [Example 3, 1-(4-Hydroxy-3-methoxybenzoyl)-N-(4-(4-(trifluoromethyl)phenoxy)phenyl)piperidine-3-carboxamide] was tested. Which pIC50 did it give?
Answer: Its pIC50 is 6.06.
